From the supplement of paper PMC11919725

Experiments:
Jurkat [1] = assay: confluency relative to DMSO, 18 h (ratio); higher = more viable
In short: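 Naive or CD3/CD28 Dynabead-activated (48 h) primary CD4+/CD8+ T cells, or Jurkat cells, received compound at 1 nM–10 µM for 18 h at 37 °C. Confluency was measured by IncuCyte phase-contrast imaging with the Basic Analyzer and normalised to the mean of the control wells. Imaging used 100 µl of suspension per well in 96-well plates with IncuCyte Cytotox Dye and alamarBlue, at ×10 with five images per well every hour for 3 h.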

Jurkat [2] = assay: metabolic activity relative to DMSO, 18 h (ratio); higher = more viable
In short: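 Naive or CD3/CD28 Dynabead-activated (48 h) primary CD4+/CD8+ T cells, or Jurkat cells, received compound at 1 nM–10 µM for 18 h. Readout used alamarBlue at 10% v/v final, with fluorescence taken after 3.5 h. Metabolic activity is given relative to mean vehicle control values.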

Jurkat [3] = assay: cytotoxicity relative to DMSO, 18 h (ratio); higher = less cell death (drugs called cytotoxic fall below 1)
In short: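 The assay used Jurkat cells or naive or CD3/CD28 Dynabead-activated (48 h) primary CD4+/CD8+ T cells, incubated with compound at 1 nM–10 µM in log10 steps for 18 h at 37 °C, 5% CO2. Cytotoxicity was assessed with IncuCyte Cytotox Dye and IncuCyte fluorescence imaging, corrected for confluency and scaled to mean control signals.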

| SMILES | confluency (Jurkat [1]; 1 nM) | confluency (Jurkat [1]; 10 nM) | confluency (Jurkat [1]; 100 nM) | confluency (Jurkat [1]; 1000 nM) | confluency (Jurkat [1]; 10000 nM) | metabolic activity (Jurkat [2]; 1 nM) | metabolic activity (Jurkat [2]; 10 nM) | metabolic activity (Jurkat [2]; 100 nM) | metabolic activity (Jurkat [2]; 1000 nM) | metabolic activity (Jurkat [2]; 10000 nM) | cytotoxicity (Jurkat [3]; 1 nM) | cytotoxicity (Jurkat [3]; 10 nM) | cytotoxicity (Jurkat [3]; 100 nM) | cytotoxicity (Jurkat [3]; 1000 nM) | cytotoxicity (Jurkat [3]; 10000 nM) |
| --- | --- | --- | --- | --- | --- | --- | --- | --- | --- | --- | --- | --- | --- | --- | --- |
| COC1CC2CCC(C)C(O)(O2)C(=O)C(=O)N2CCCCC2C(=O)OC(C(C)CC2CCC(OCCO)C(OC)C2)CC(=O)C(C)C=C(C)C(O)C(OC)C(=O)C(C)CC(C)C=CC=CC=C1C (stereo not given) [Everolimus] | 0.88 | 0.877 | 0.969 | 1.06 | 0.906 | 0.773 | 0.935 | 0.975 | 0.958 | 0.981 | 0.853 | 0.843 | 0.947 | 0.996 | 0.893 |
| COc1ccc(-c2nc(N3CCOCC3)c3sc(CN(C)c4ncc(C(=O)NO)cn4)cc3n2)cn1 [Fimepinostat] | 0.995 | 1.12 | 1.2 | 1.31 | 1.23 | 0.731 | 0.914 | 0.796 | 0.772 | 0.42 | 0.792 | 1.09 | 1.05 | 1.12 | 0.892 |
| COc1cc(Nc2ncc(F)c(Nc3ccc4c(n3)N(COP(=O)(O)O)C(=O)C(C)(C)O4)n2)cc(OC)c1OC [Fostamatinib] | 1 | 0.995 | 0.961 | 0.911 | 0.821 | 1.21 | 1.23 | 1.1 | 1.01 | 0.925 | 1.06 | 1.05 | 0.951 | 0.893 | 0.783 |
| CCNC(=O)Nc1ccc(-c2nc3c(c(N4CCOCC4C)n2)CCN(C2COC2)C3)cc1 (stereo not given) [GDC-0349] | 0.992 | 0.981 | 0.955 | 0.932 | 0.873 | 0.925 | 0.919 | 0.886 | 0.841 | 0.798 | 0.991 | 0.972 | 0.947 | 0.887 | 0.78 |
| COC1=C2CC(C)CC(OC)C(O)C(C)C=C(C)C(OC(N)=O)C(OC)C=CC=C(C)C(=O)NC(=CC1=O)C2=O (stereo not given) [Geldanamycin] | 0.963 | 1.02 | 0.786 | 0.971 | 0.975 | 0.985 | 0.95 | 0.767 | 0.567 | 0.7 | 0.946 | 0.982 | 0.745 | 0.815 | 0.798 |
| Nc1ccn(C2OC(CO)C(O)C2(F)F)c(=O)n1 (stereo not given) [Gemcitabine] | 0.916 | 0.993 | 1.04 | 0.732 | 0.69 | 1 | 1.07 | 0.61 | 0.712 | 0.724 | 0.927 | 1.01 | 0.921 | 0.651 | 0.602 |
| CCN(CC)Cc1ccc2cc(COC(=O)Nc3ccc(C(=O)NO)cc3)ccc2c1 [Givinostat] | 1.05 | 0.98 | 1.05 | 1.18 | 1.2 | 0.902 | 0.981 | 0.969 | 0.845 | 0.762 | 1.15 | 1.01 | 1.06 | 1.03 | 1.04 |
| COc1ccc(S(=O)(=O)N(C(C)=O)c2ccccc2C=Cc2cc[n+]([O-])cc2)cc1 [HMN-214] | 0.983 | 0.99 | 0.993 | 0.979 | 0.694 | 1.11 | 0.973 | 0.813 | 0.779 | 0.503 | 1.11 | 0.94 | 0.954 | 0.982 | 0.602 |
| NC1CCC(NC2CC2c2ccccc2)CC1 (stereo not given) [Iadademstat] | 1.01 | 0.967 | 1.02 | 1.03 | 1.05 | 0.93 | 0.857 | 0.737 | 1.09 | 0.95 | 0.988 | 0.933 | 0.928 | 1.14 | 1.15 |
| O=C1CCC(N2Cc3c(OCc4ccc(CN5CCOCC5)cc4)cccc3C2=O)C(=O)N1 (stereo not given) [Iberdomide] | 0.898 | 0.805 | 0.811 | 0.8 | 0.823 | 0.987 | 0.949 | 1.02 | 1.11 | 1.21 | 0.885 | 0.749 | 0.877 | 0.796 | 0.865 |
| CCC(Nc1ncnc2nc[nH]c12)c1nc2cccc(F)c2c(=O)n1-c1ccccc1 (stereo not given) [Idelalisib] | 1.07 | 1.09 | 1.1 | 0.986 | 1.07 | 0.825 | 0.959 | 0.958 | 0.983 | 0.993 | 1.05 | 1.08 | 1.09 | 0.927 | 1 |
| CC(C)CC(NC(=O)CNC(=O)c1cc(Cl)ccc1Cl)B(O)O (stereo not given) [Ixazomib] | 0.945 | 0.97 | 1.12 | 0.922 | 1.09 | 0.928 | 1.04 | 0.924 | 0.382 | 0.121 | 0.958 | 1 | 1.03 | 0.682 | 0.631 |
| Cc1cc(C)cc(C(=O)NOCCCCCC(=O)NO)c1 [LMK235] | 0.982 | 1.03 | 1.06 | 1.16 | 1.3 | 0.997 | 0.979 | 1.04 | 0.905 | 0.694 | 0.947 | 0.991 | 1.08 | 1.04 | 1.26 |
| Nc1cccc2c1CN(C1CCC(=O)NC1=O)C2=O (stereo not given) [Lenalidomide] | 0.996 | 0.912 | 0.993 | 0.96 | 0.93 | 0.931 | 0.895 | 0.809 | 0.905 | 0.96 | 0.945 | 0.905 | 0.96 | 0.912 | 0.892 |
| COc1cc(C)[nH]c(=O)c1CNC(=O)c1c(C)n(C(C)C2CCN(CC(F)(F)F)CC2)c2ccccc12 (stereo not given) [Lirametostat] | 1.01 | 1.03 | 1.02 | 0.984 | 0.929 | 1.01 | 1.02 | 1.01 | 1.02 | 0.856 | 1 | 1 | 1.03 | 0.972 | 0.892 |
| CC(C)CC(C=O)NC(=O)C(CC(C)C)NC(=O)C(CC(C)C)NC(=O)OCc1ccccc1 (stereo not given) [MG-132] | 1.01 | 0.99 | 1.02 | 0.605 | 0.69 | 0.799 | 0.84 | 0.938 | 0.359 | 0.11 | 0.953 | 0.939 | 0.989 | 0.471 | 0.461 |
| O=C(O)C1(Cc2cccc(Nc3nccs3)n2)CCC(Oc2cccc(Cl)c2F)CC1 (stereo not given) [MK-5108] | 1.01 | 1.02 | 0.89 | 0.865 | 0.868 | 1.02 | 1.05 | 0.922 | 0.763 | 0.756 | 0.966 | 1.05 | 0.922 | 0.881 | 0.932 |
| O=C(O)c1ccc(Nc2ncc3c(n2)-c2ccc(Cl)cc2C(c2c(F)cccc2F)=NC3)cc1 [MLN-8054] | 0.953 | 1.06 | 1.03 | 0.879 | 0.791 | 0.971 | 0.993 | 0.955 | 0.913 | 0.558 | 0.913 | 1.02 | 0.967 | 0.812 | 0.623 |
| CN(Cc1cnc2nc(N)nc(N)c2n1)c1ccc(C(=O)NC(CCC(=O)O)C(=O)O)cc1 (stereo not given) [Methotrexate] | 0.943 | 0.828 | 0.619 | 0.576 | 0.603 | 1.12 | 1.08 | 1 | 0.865 | 0.746 | 1.05 | 0.897 | 0.666 | 0.571 | 0.585 |
| CNC(=O)c1nn(C)c2c1C(C)(C)Cc1cnc(Nc3ccc(N4CCN(C)CC4)cc3)nc1-2 [Milciclib] | 1.01 | 0.985 | 1.01 | 0.969 | 1.01 | 1.05 | 0.965 | 0.953 | 0.684 | 0.809 | 0.986 | 0.958 | 0.956 | 0.794 | 0.897 |
| Nc1ccccc1NC(=O)c1ccc(CNc2nccc(-c3cccnc3)n2)cc1 [Mocetinostat] | 1 | 1.02 | 1 | 0.76 | 0.886 | 0.892 | 0.841 | 0.822 | 0.747 | 0.3 | 0.997 | 1.01 | 0.975 | 0.726 | 0.636 |
| CCNC(=O)CC1N=C(c2ccc(Cl)cc2)c2cc(OC)ccc2-n2c(C)nnc21 (stereo not given) [Molibresib] | 1.02 | 1.03 | 1.03 | 1 | 0.879 | 0.916 | 1.06 | 1.18 | 0.878 | 0.887 | 0.992 | 1 | 1.07 | 0.955 | 0.848 |
| O=C1C=CC(=O)C2=C1C1c3ccccc3C2c2ccccc21 [NFAT activation inhibitor III] | 1 | 0.877 | 0.804 | 0.97 | 0.864 | 1.04 | 1.04 | 1.12 | 1.01 | 0.834 | 0.945 | 0.784 | 0.732 | 1.04 | 0.839 |
| CCCCN(Cc1ccc(C(=O)NO)cc1)C(=O)Nc1ccccc1 [Nexturastat A] | 0.989 | 0.978 | 0.98 | 0.935 | 0.989 | 1.05 | 1.15 | 1.1 | 1.02 | 0.66 | 1.05 | 1.15 | 1.07 | 0.955 | 0.92 |
| COC(=O)c1ccc2c(C(=Nc3ccc(N(C)C(=O)CN4CCN(C)CC4)cc3)c3ccccc3)c(O)[nH]c2c1 [Nintedanib] | 0.986 | 0.955 | 0.981 | 0.832 | 0.566 | 1.01 | 0.93 | 0.949 | 0.919 | 0.827 | 0.929 | 0.948 | 0.988 | 0.81 | 0.537 |
| NC(=O)c1cccc2cn(-c3ccc(C4CCCNC4)cc3)nc12 (stereo not given) [Niraparib] | 1.07 | 1.04 | 1.06 | 1.05 | 0.915 | 0.947 | 0.907 | 1.17 | 0.992 | 1.01 | 1.11 | 1.01 | 1.1 | 1.03 | 0.94 |
| COC(=O)Nc1nc2ccc(C(=O)c3cccs3)cc2[nH]1 [Nocodazole] | 1.02 | 1.06 | 1.14 | 0.907 | 0.731 | 0.881 | 1.08 | 0.621 | 0.589 | 0.554 | 1.03 | 1.08 | 1.02 | 0.807 | 0.59 |
| COc1ccc(C2=NC(c3ccc(Cl)cc3)C(c3ccc(Cl)cc3)N2C(=O)N2CCNC(=O)C2)c(OC(C)C)c1 (stereo not given) [Nutlin-3] | 0.971 | 0.92 | 1.01 | 0.98 | 0.963 | 0.983 | 1.01 | 1.02 | 0.991 | 0.84 | 0.993 | 0.951 | 0.962 | 0.985 | 0.917 |
| O=C(c1cc(Cc2n[nH]c(=O)c3ccccc23)ccc1F)N1CCN(C(=O)C2CC2)CC1 [Olaparib] | 0.954 | 1.02 | 0.974 | 0.975 | 0.969 | 1.08 | 1.09 | 0.911 | 0.899 | 1 | 0.942 | 1.03 | 1 | 1.01 | 0.977 |
